# Laboratory results published in US12435310B2, “Expansion culture method for human-derived natural killer cells by using HDAC inhibitor” (KOREA UNIVERSITY RESEARCH AND BUSINESS FOUNDATION, priority 2018, dated 2025).
# Read-outs that look alike come from different tables or passages of the source.
# Legend:
# [1] = tested on: natural killer cells; assay: CD107a expression and IFN-g secretion of natural killer cells, flow cytometry; type: cell-based, Human
# Experimental: 2.5 μl of FITC-labeled anti-CD107a mAb was added to the cells, and Golgi stop (BD Pharmingen) was added, followed by culture at 37° C. for 5 hours. After completion of culture, PerCPp-labeled CD3 mAb (Biolgend Cat No. 344814 clone SK7) and APC-labeled CD56mAb (Biolegend Cat No. 362504 clone 5.1H11) were added to the cells and allowed to react at 4° C. for 20 minutes. For intracellular FACS, the cells were washed with FACS buffer, fixed, permeabilized using a BD Cytoperm/Cytofix kit (BD Pharmingen, San Diego, CA), stained with PE-labeled IFN-g mAb, and then analyzed by flow cytometry. As a positive control, natural killer cells treated with PMA/ionomycin were used.
# [2] = tested on: natural killer cells; assay: Apoptosis by annexin V/7AAD staining, flow cytometry; type: cell-based, Human; settings: NK cells expanded 10 days, treated, further cultured 8 days (FIG. 3)
# Experimental: (§1) In the same manner as in Example 1, natural killer cells expanded ex vivo for 10 days were treated with an HDAC inhibitor and further cultured for 8 days. After harvesting the cells, 5×10^5 cells were obtained and apoptosis and proliferation thereof were measured using a flow cytometer.
# (§2) To measure apoptosis, cells were harvested and stained with annexin V (2.5 μl) and 7AAD (2 μl) for 15 minutes, and then the proportion of the cells stained with annexin V/7AAD was analyzed using FACS Cantoll (BD). To measure cell proliferation, PerCP-labeled CD3 mAb (Biolgend Cat No. 344814 clone SK7) and APC-labeled CD56 mAb (Biolegend Cat No. 362504 clone 5.1H11) were added to the cells and allowed to react at 4° C. for 20 minutes. For intracellular FACS, the cells were washed with FACS buffer, and analyzed by staining Ki67 in the cell nucleus with the eBioscience Foxp3/transcription factor staining buffer set (eBioscience Cat No. 00-5523-00).
# [3] = tested on: K562 and A375 target cancer cells; assay: Cancer cell killing ability of natural killer cells, chromium release; type: cell-based, Human; settings: K562 and A375 targets, ratio 1:1, 4 hours, versus untreated control (FIG. 4A)
# Experimental: In order to examine whether the cancer cell killing ability of the natural killer cells expanded ex vivo by the method of Example 1 changes, K562 (Korea Cell Line Bank) and A375 (Korea Cell Line Bank) cells were prepared as target cancer cells, labeled with chromium for 1 hour, mixed with natural killer cells at a ratio of 1:1, and then co-cultured 37° C. After 4 hours, the supernatant was taken and the isotope value thereof was analyzed using a gamma counter.
# [4] = tested on: natural killer cells; assay: Cell proliferation by Ki67 staining, flow cytometry; type: cell-based, Human; settings: NK cells expanded 10 days, treated, further cultured 8 days (FIG. 3)
# Experimental: as §1, §2
# [5] = tested on: natural killer cells; assay: Cell counting during ex vivo expansion culture of natural killer cells (hematocytometer); type: cell-based, Human
# Experimental: Human blood was collected, and then centrifuged using Ficoll (Ficoll-Paque™ PLUS, GE Healthcare) at 2500 rpm for 30 minutes, and peripheral blood mononuclear cells were isolated from the buffy coat. Thereafter, the isolated cells were co-cultured with the Jurkat cell line (Korea Cell Line Bank) and EBV-LCL cell line (Korea Cell Line Bank) (each cell line was irradiated with 100 Gy) at a peripheral blood mononuclear cell:Jurkat cell:EBV-LCL cell ratio of 1:0.5:0.5 in hRPMI medium (RPMI1640 medium (Corning) containing 10% FBS and 1% penicillin/streptomycin) in the presence of 500 U/ml of IL-2. During culture, the medium was replaced with hRPMI medium containing 500 U/ml of IL-2 once every 3 to 4 days.
# In order to confirm the effect of an HDAC inhibitor on natural killer cells, the natural killer cells cultured for […] under the above-described conditions were treated with 125 nM of an HDAC inhibitor (SAHA, Sigma Aldrich, USA) once every 4 days, and the number of the cells was counted (FIG. 1A). At this time, the number of the cells was counted using a hematocytometer once every 4 days while the cells were further cultured for about 12 days, and during culture, the medium was replaced with hRPMI medium containing 500 U/ml of IL-2.
# [6] = tested on: NK cells; settings: Ogbomo et al., FEBS Letters 2007; cited from earlier work
# [7] = tested on: NK cells; settings: cited from earlier work
smiles,measurement,setting,value
O=C(CCCCCCC(=O)Nc1ccccc1)NO [SAHA],interferon-gamma secretion of the cells,"[1]; co-cultured 10 days, then treated",did not change
same,function of the natural killer cells: expression of CD107a and secretion of IFN-g,[1]; treated or not treated with the HDAC inhibitor (FIG. 4B),no change
same,apoptosis of the natural killer cells (annexin V/7AAD),[2],inhibited
same,cancer cell killing ability of the natural killer cells,[3],did not change
same,proliferation of the natural killer cells (Ki67),[4],did not change
same,proliferation of the natural killer cells (Ki67),[4]; listed as HDAC inhibitor,no significant change
same,number of cells compared with control group not treated with the HDAC inhibitor,"[5]; NK cells cultured 6 days, then 125 nM once every 4 days, further culture about 12 days (FIG. 1B)",more than double
same,number of the natural killer cells compared to conventional culture method,"[5]; PBMC co-cultured with Jurkat and EBV-LCL cells for 10 days, then treated",increased
same,proliferation of the NK cells by concentration,[5]; concentration of 62.5 nM (FIG. 2B),the highest
same,number of cells,[5]; treated at an initial stage without being cultured,no increase
same,number of cells by timing of treatment,[5]; treated from co-culture day 6 (FIG. 2A),the highest
same,proliferation of the NK cells (growth curve),[5]; treated on day 0 of culture compared to treated on day 10 of culture (FIG. 1C),decreased
CCCC(CCC)C(=O)O [valproic acid],proliferation of the NK cells,[6],decreases
same,cancer cell killing ability of the NK cells,"[7]; Ogbomo et al., FEBS Letters 2007",decreases
O=C(CCCCCCC(=O)Nc1ccccc1)NO [vorinostat],cancer cell killing ability of the NK cells,"[7]; activated NK cells, Wang et al., Biol Blood Marrow Transplant 2012",no change
